Test results from patent publication US20250195670A1, “METFORMIN NANOFORMULATIONS AND METHODS OF USE THEREOF” (priority 2022, published 2025).

What was measured:
UNKPC cells = experiment: UNKPC cell growth (optical density); assay type: cell-based
Description: The ability of the dendrimers was also tested for their ability to deliver metformin to UNKPC cells, a pancreatic cancer cell line. Specifically, […] were exposed to metformin, PAMAM-OH, or P4-MET.

[1] = oral metformin; cited from earlier work
cell cultures = conditions: cited from earlier work
[2] = in vivo; cited from earlier work
U87MG cells = experiment: U87MG cell growth (optical density); assay type: cell-based; conditions: Homo sapiens, U-87 MG
Description: FIGS. 2A-2D provide graphs of U87MG growth at the indicated concentrations of metformin (FIG. 2A), PAMAM-OH (FIG. 2B), PAMAM-OH and metformin (FIG. 2C), and P4-MET (FIG. 2D).
The ability of the dendrimers was tested for their ability to deliver metformin to U87MG cells, a human glioma cell line sensitive to metformin. Specifically, U87MG cells were exposed to metformin, PAMAM-OH, PAMAM-OH with metformin, or P4-MET.

Ln229 cells = experiment: Ln229 cell growth (optical density); assay type: cell-based; conditions: Homo sapiens, LN-229
Description: FIGS. 3A-3D provide graphs of Ln229 growth at the indicated concentrations of metformin (FIG. 3A), PAMAM-OH (FIG. 3B), PAMAM-OH and metformin (FIG. 3C), and P4-MET (FIG. 3D).
The ability of the dendrimers was also tested for their ability to deliver metformin to Ln229 cells, a human glioblastoma cell line sensitive to metformin. Specifically, Ln229 cells were exposed to metformin, PAMAM-OH, PAMAM-OH with metformin, or P4-MET.

Panc-1 cells = experiment: Panc-1 cell growth (optical density); assay type: cell-based; conditions: Homo sapiens
Description: The ability of the dendrimers was also tested for their ability to deliver metformin to Panc-1 cells, a human pancreatic cancer cell line. Specifically, Panc-1 cells were exposed to metformin, PAMAM-OH, and P4-MET.

[3] = tested on: bone marrow-derived macrophages (BMDM); experiment: BMDM growth (optical density); assay type: cell-based; conditions: Mus musculus; BMDM cells, 72 hours
Description: FIGS. 5A-5D provide graphs of bone marrow-derived macrophages (BMDM) growth at the indicated concentrations of metformin (FIG. 5A), PAMAM-OH (FIG. 5B), PAMAM-OH and metformin (FIG. 5C), and P4-MET (FIG. 5D).
The ability of the dendrimers was also tested for their ability to deliver metformin to bone marrow-derived macrophages (BMDM). Specifically, BMDM cells were exposed to metformin, PAMAM-OH, PAMAM-OH with metformin, or P4-MET for 72 hours.

MGPP3 cells = experiment: MGPP3 cell growth (optical density); assay type: cell-based; conditions: Mus musculus
Description: FIGS. 4A-4D provide graphs of MGPP3 growth at the indicated concentrations of metformin (FIG. 4A), PAMAM-OH (FIG. 4B), PAMAM-OH and metformin (FIG. 4C), and P4-MET (FIG. 4D).
The ability of the dendrimers was also tested for their ability to deliver metformin to MGPP3 cells, a mouse glioblastoma cell line sensitive to metformin. Specifically, MGPP3 cells were exposed to metformin, PAMAM-OH, PAMAM-OH with metformin, or P4-MET.

CN(C)C(=N)NC(=N)N [metformin, 1,1-dimethylbiguanide]
IC50 (UNKPC cells): 1.64 mM
pharmacological concentrations in patients [1]: less than 50 μM
typical effective concentration in cell cultures (cell cultures): in the mM range
gastrointestinal-related side effects, share of patients [2]: 20-30%
IC50 (U87MG cells): 14.4 mM
IC50 (Ln229 cells): 0.99 mM
IC50 (Panc-1 cells): 5.24 mM
IC50 [3]: 3.53 mM
IC50 (MGPP3 cells): 12.5 mM
